Data: PubChem BioAssay (NCI)
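All cell lines were grown in 96-well plates and treated with compound for 48 hours. TGI is the concentration that stops growth completely.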

Tests used:
Experiment in all cases: NCI anticancer screen, dose series, 48 h
[1] = tested on: 786-0 renal
[2] = tested on: A498 renal
[3] = tested on: A549 NSCLC
[4] = tested on: ACHN renal
[5] = tested on: CAKI-1 renal
[6] = tested on: CCRF-CEM leukemia
[7] = tested on: DLD-1 colon
[8] = tested on: DMS 114 small cell lung
[9] = tested on: DMS 273 small cell lung
[10] = tested on: EKVX NSCLC
[11] = tested on: HCC-2998 colon
[12] = tested on: HCT-116 colon
[13] = tested on: HL-60(TB) leukemia
[14] = tested on: HOP-62 NSCLC
[15] = tested on: HOP-92 NSCLC
[16] = tested on: HT29 colon
[17] = tested on: IGROV1 ovarian
[18] = tested on: K-562 leukemia
[19] = tested on: KM12 colon
[20] = tested on: KM20L2 colon
[21] = tested on: LXFL 529 NSCLC
[22] = tested on: M14 melanoma
[23] = tested on: M19-MEL melanoma
[24] = tested on: MALME-3M melanoma
[25] = tested on: MOLT-4 leukemia
[26] = tested on: NCI-H226 lung
[27] = tested on: NCI-H23 lung
[28] = tested on: NCI-H460 lung
[29] = tested on: NCI-H522 lung
[30] = tested on: OVCAR-3 ovarian
[31] = tested on: OVCAR-4 ovarian
[32] = tested on: OVCAR-5 ovarian
[33] = tested on: OVCAR-8 ovarian
[34] = tested on: RXF 393 renal
[35] = tested on: RXF-631 renal
[36] = tested on: SF-268 CNS
[37] = tested on: SF-295 CNS
[38] = tested on: SF-539 CNS
[39] = tested on: SK-MEL-2 melanoma
[40] = tested on: SK-MEL-28 melanoma
[41] = tested on: SK-MEL-5 melanoma
[42] = tested on: SK-OV-3 ovarian
[43] = tested on: SN12C renal
[44] = tested on: SNB-19 CNS
[45] = tested on: SNB-75 CNS
[46] = tested on: SNB-78 CNS
[47] = tested on: SR leukemia
[48] = tested on: SW-620 colon
[49] = tested on: TK-10 renal
[50] = tested on: U251 CNS
[51] = tested on: UACC-257 melanoma
[52] = tested on: UACC-62 melanoma
[53] = tested on: UO-31 renal
[54] = tested on: XF 498 CNS
[55] = tested on: COLO 205 colon
[56] = tested on: HCT-15 colon
[57] = tested on: HOP-18 NSCLC
[58] = tested on: LOX IMVI melanoma
[59] = tested on: RPMI-8226 leukemia

`CC1C=CC(O)[C@]2(CO)CC3(CCC12)OCCO3` (some centres not stated) showed a TGI [1] greater than 100 µM, a TGI [2] greater than 100 µM and a TGI [3] greater than 100 µM. For the same molecule, the TGI [4] was greater than 100 µM, the TGI [5] was greater than 100 µM and the TGI [6] was greater than 100 µM. It also gave a TGI [7] greater than 100 µM, a TGI [8] greater than 100 µM and a TGI [9] greater than 100 µM. For the same molecule, the TGI [10] was greater than 100 µM, the TGI [11] was greater than 100 µM and the TGI [12] was greater than 100 µM. The TGI [13] was greater than 100 µM, the TGI [14] was greater than 100 µM and the TGI [15] was greater than 100 µM. For the same molecule, the TGI [16] was greater than 100 µM, the TGI [17] was greater than 100 µM and the TGI [18] was greater than 100 µM. For the same molecule, the TGI [19] was greater than 100 µM, the TGI [20] was greater than 100 µM and the TGI [21] was greater than 100 µM. The TGI [22] was greater than 100 µM, the TGI [23] was greater than 100 µM and the TGI [24] was greater than 100 µM. It also gave a TGI [25] greater than 100 µM, a TGI [26] greater than 100 µM and a TGI [27] greater than 100 µM. It also gave a TGI [28] greater than 100 µM, a TGI [29] greater than 100 µM and a TGI [30] greater than 100 µM. It also gave a TGI [31] greater than 100 µM, a TGI [32] greater than 100 µM and a TGI [33] greater than 100 µM. It also gave a TGI [34] greater than 100 µM, a TGI [35] greater than 100 µM and a TGI [36] greater than 100 µM. The TGI [37] was greater than 100 µM, the TGI [38] was greater than 100 µM and the TGI [39] was greater than 100 µM. For the same molecule, the TGI [40] was greater than 100 µM, the TGI [41] was greater than 100 µM and the TGI [42] was greater than 100 µM. For the same molecule, the TGI [43] was greater than 100 µM, the TGI [44] was greater than 100 µM and the TGI [45] was greater than 100 µM. For the same molecule, the TGI [46] was greater than 100 µM, the TGI [47] was greater than 100 µM and the TGI [48] was greater than 100 µM. The TGI [49] was greater than 100 µM, the TGI [50] was greater than 100 µM and the TGI [51] was greater than 100 µM. It also gave a TGI [52] greater than 100 µM, a TGI [53] greater than 100 µM and a TGI [54] greater than 100 µM.

With `O=C(O)c1ccccc1NS(=O)(=O)c1ccc([N+](=O)[O-])cc1` the TGI [1] was greater than 100 µM, the TGI [3] was greater than 100 µM and the TGI [4] was greater than 100 µM. It also gave a TGI [5] greater than 100 µM, a TGI [6] greater than 100 µM and a TGI [55] greater than 100 µM. It also gave a TGI [9] greater than 100 µM, a TGI [10] greater than 100 µM and a TGI [11] greater than 100 µM. It also gave a TGI [12] greater than 100 µM, a TGI [56] greater than 100 µM and a TGI [57] greater than 100 µM. For the same molecule, the TGI [14] was greater than 100 µM, the TGI [16] was greater than 100 µM and the TGI [17] was greater than 100 µM. For the same molecule, the TGI [18] was greater than 100 µM, the TGI [19] was greater than 100 µM and the TGI [20] was greater than 100 µM. For the same molecule, the TGI [58] was greater than 100 µM, the TGI [21] was greater than 100 µM and the TGI [22] was greater than 100 µM. It also gave a TGI [24] greater than 100 µM, a TGI [25] greater than 100 µM and a TGI [26] greater than 100 µM. For the same molecule, the TGI [27] was greater than 100 µM, the TGI [28] was greater than 100 µM and the TGI [29] was greater than 100 µM. For the same molecule, the TGI [30] was greater than 100 µM, the TGI [31] was greater than 100 µM and the TGI [32] was greater than 100 µM. For the same molecule, the TGI [33] was greater than 100 µM, the TGI [59] was greater than 100 µM and the TGI [34] was greater than 100 µM. For the same molecule, the TGI [35] was greater than 100 µM, the TGI [36] was greater than 100 µM and the TGI [37] was greater than 100 µM. The TGI [38] was greater than 100 µM, the TGI [39] was greater than 100 µM and the TGI [40] was greater than 100 µM. For the same molecule, the TGI [41] was greater than 100 µM, the TGI [42] was greater than 100 µM and the TGI [43] was greater than 100 µM. For the same molecule, the TGI [44] was greater than 100 µM, the TGI [45] was greater than 100 µM and the TGI [46] was greater than 100 µM. The TGI [48] was greater than 100 µM, the TGI [49] was greater than 100 µM and the TGI [50] was greater than 100 µM. It also gave a TGI [51] greater than 100 µM, a TGI [52] greater than 100 µM and a TGI [53] greater than 100 µM. It also gave a TGI [54] greater than 100 µM.

For `COc1ccc(O)c2c(=O)ccccc12`, the TGI [1] was greater than 100 µM, the TGI [2] was greater than 100 µM and the TGI [3] was greater than 100 µM. The TGI [4] was greater than 100 µM, the TGI [6] was greater than 100 µM and the TGI [55] was greater than 100 µM. It also gave a TGI [7] greater than 100 µM, a TGI [8] greater than 100 µM and a TGI [9] greater than 100 µM. For the same molecule, the TGI [10] was greater than 100 µM, the TGI [11] was greater than 100 µM and the TGI [12] was greater than 100 µM. It also gave a TGI [56] greater than 100 µM, a TGI [13] greater than 100 µM and a TGI [14] greater than 100 µM. The TGI [15] was greater than 100 µM, the TGI [16] was greater than 100 µM and the TGI [17] was greater than 100 µM. It also gave a TGI [18] greater than 100 µM, a TGI [19] greater than 100 µM and a TGI [58] greater than 100 µM. The TGI [21] was greater than 100 µM, the TGI [22] was greater than 100 µM and the TGI [23] was greater than 100 µM. The TGI [24] was greater than 100 µM, the TGI [25] was greater than 100 µM and the TGI [26] was greater than 100 µM. For the same molecule, the TGI [27] was greater than 100 µM, the TGI [28] was greater than 100 µM and the TGI [29] was 91.7 µM. The TGI [30] was greater than 100 µM, the TGI [31] was greater than 100 µM and the TGI [32] was greater than 100 µM. The TGI [33] was greater than 100 µM, the TGI [59] was greater than 100 µM and the TGI [34] was greater than 100 µM. The TGI [35] was greater than 100 µM, the TGI [36] was greater than 100 µM and the TGI [37] was greater than 100 µM. The TGI [38] was greater than 100 µM, the TGI [39] was greater than 100 µM and the TGI [40] was greater than 100 µM. The TGI [41] was greater than 100 µM, the TGI [42] was greater than 100 µM and the TGI [43] was greater than 100 µM. The TGI [44] was greater than 100 µM, the TGI [45] was greater than 100 µM and the TGI [46] was greater than 100 µM. It also gave a TGI [47] greater than 100 µM, a TGI [48] greater than 100 µM and a TGI [49] of 60 µM. The TGI [50] was greater than 100 µM, the TGI [51] was greater than 100 µM and the TGI [52] was greater than 100 µM. The TGI [53] was greater than 100 µM and the TGI [54] was greater than 100 µM.
